# Legend:
# [1] = system: Mycoplasma pneumoniae IID817; assay: Antimycoplasmal activity, MIC by phenol red colour change, organism No. 28; assay type: cell-based; conditions: Mycoplasma, IID817; Organism No. 28, PPLO broth + 1% glucose, 37° C.; read-out: Minimum Inhibitory Concentration (MIC)
# Procedure: Mycoplasma pneumoniae IID817 was used as the test microorganism in a culture medium prepared by adding 1% of glucose to "PPLO broth (manufactured by Difco Co.) liquid culture medium" at 37° C. with phenol red as an indicator, thereby culturing the test microorganism.
# [2] = system: Streptococcus pyogenes Cook; assay: Antibacterial activity, agar-dilution MIC, organism No. 4; assay type: cell-based; conditions: Streptococcus pyogenes; Organism No. 4, bouillon-agar; read-out: Minimum Inhibitory Concentration
# Outline: (§1)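 MICs were determined by agar dilution on bouillon-agar medium. The value is the minimum concentration of specimen inhibiting growth, expressed as μg/ml of culture medium.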
# [3] = system: Pseudomonas aeruginosa NCTC 10490; assay: Antibacterial activity, agar-dilution MIC, organism No. 16; assay type: cell-based; conditions: Pseudomonas aeruginosa, NCTC10490; Organism No. 16, bouillon-agar; read-out: Minimum Inhibitory Concentration
# Outline: as §1
# [4] = system: Pseudomonas aeruginosa IFO 3445; assay: Antibacterial activity, agar-dilution MIC, organism No. 15; assay type: cell-based; conditions: Pseudomonas aeruginosa, IFO3445; Organism No. 15, bouillon-agar; read-out: Minimum Inhibitory Concentration
# Outline: as §1
# Enterobacter cloacae 963 = assay: Antibacterial activity, agar-dilution MIC, organism No. 24; assay type: cell-based; conditions: Enterobacter cloacae, 963; Organism No. 24, bouillon-agar; read-out: Minimum Inhibitory Concentration
# Outline: as §1
# [5] = system: Candida albicans IAM 4905; assay: Antifungal activity, agar-dilution MIC, organism No. 29; assay type: cell-based; conditions: Candida albicans, IAM4905; Organism No. 29, bouillon-agar; read-out: Minimum Inhibitory Concentration
# Outline: as §1
# [6] = system: Aspergillus niger IFO 6342; assay: Antifungal activity, agar-dilution MIC, organism No. 30; assay type: cell-based; conditions: Aspergillus niger, IFO6342; Organism No. 30, bouillon-agar; read-out: Minimum Inhibitory Concentration
# Outline: as §1
# [7] = system: Salmonella shottmuelleri 8006; assay: Antibacterial activity, agar-dilution MIC, organism No. 11; assay type: cell-based; conditions: Salmonella, 8006; Organism No. 11, bouillon-agar; read-out: Minimum Inhibitory Concentration
# Outline: as §1
# [8] = system: Streptococcus faecium IFO 3826; assay: Antibacterial activity, agar-dilution MIC, organism No. 27; assay type: cell-based; conditions: Enterococcus faecium, IFO3826; Organism No. 27, bouillon-agar; read-out: Minimum Inhibitory Concentration
# Outline: as §1
# [9] = system: Salmonella paratyphi-A 1015; assay: Antibacterial activity, agar-dilution MIC, organism No. 10; assay type: cell-based; conditions: Salmonella enterica, PARATYPHI, read-out: Minimum Inhibitory Concentration
# Outline: as §1
# Proteus vulgaris HX-19 = assay: Antibacterial activity, agar-dilution MIC, organism No. 21; assay type: cell-based; conditions: Proteus vulgaris, HX19; Organism No. 21, bouillon-agar; read-out: Minimum Inhibitory Concentration
# Outline: as §1
# [10] = system: Proteus morganii IFO 3848; assay: Antibacterial activity, agar-dilution MIC, organism No. 18; assay type: cell-based; conditions: Morganella morganii, IFO3848; Organism No. 18, bouillon-agar; read-out: Minimum Inhibitory Concentration
# Outline: as §1
# [11] = system: Salmonella typhimurium IID 971; assay: Antibacterial activity, agar-dilution MIC, organism No. 8; assay type: cell-based; conditions: Salmonella enterica; Organism No. 8, bouillon-agar; read-out: Minimum Inhibitory Concentration
# Outline: as §1
# [12] = system: Streptococcus pyogenes IFO 3340; assay: Antibacterial activity, agar-dilution MIC, organism No. 26; assay type: cell-based; conditions: Streptococcus pyogenes, IFO3340; Organism No. 26, bouillon-agar; read-out: Minimum Inhibitory Concentration
# Outline: as §1
# [13] = system: Escherichia coli NIHJ-JC-2; assay: Antibacterial activity, agar-dilution MIC, organism No. 5; assay type: cell-based; conditions: Escherichia coli, NIHJJC2; Organism No. 5, bouillon-agar; read-out: Minimum Inhibitory Concentration
# Outline: as §1
# [14] = system: Escherichia coli K12 C600 IAM 1264; assay: Antibacterial activity, agar-dilution MIC, organism No. 6; assay type: cell-based; conditions: Escherichia coli, IAM1264; Organism No. 6, bouillon-agar; read-out: Minimum Inhibitory Concentration
# Outline: as §1
# [15] = system: Salmonella enteritidis G 14; assay: Antibacterial activity, agar-dilution MIC, organism No. 12; assay type: cell-based; conditions: Salmonella enterica, ENTERITIDIS; Organism No. 12, bouillon-agar; read-out: Minimum Inhibitory Concentration
# Outline: as §1
# Proteus vulgaris OX-19 = assay: Antibacterial activity, agar-dilution MIC, organism No. 20; assay type: cell-based; conditions: Proteus vulgaris, OX19; Organism No. 20, bouillon-agar; read-out: Minimum Inhibitory Concentration
# Outline: as §1
# [16] = system: Pseudomonas aeruginosa PAO 1; assay: Antibacterial activity, agar-dilution MIC, organism No. 17; assay type: cell-based; conditions: Pseudomonas aeruginosa, PAO1; Organism No. 17, bouillon-agar; read-out: Minimum Inhibitory Concentration
# Outline: as §1
# [17] = system: Micrococcus luteus ATCC 9341; assay: Antibacterial activity, agar-dilution MIC, organism No. 25; assay type: cell-based; conditions: Micrococcus luteus, ATCC9341; Organism No. 25, bouillon-agar; read-out: Minimum Inhibitory Concentration
# Outline: as §1
# [18] = Stability in a non-solvent state; assay type: physicochemical
# [19] = system: Staphylococcus aureus FDA 209PJc-1; assay: Antibacterial activity, agar-dilution MIC, organism No. 1; assay type: cell-based; conditions: Staphylococcus aureus, FDA209PJC1; Organism No. 1, bouillon-agar; read-out: Minimum Inhibitory Concentration
# Outline: as §1
# [20] = system: Proteus rettgeri IFO 3850; assay: Antibacterial activity, agar-dilution MIC, organism No. 22; assay type: cell-based; conditions: Providencia rettgeri, IFO3850; Organism No. 22, bouillon-agar; read-out: Minimum Inhibitory Concentration
# Outline: as §1
# [21] = system: Klebsiella pneumoniae PCI-602; assay: Antibacterial activity, agar-dilution MIC, organism No. 7; assay type: cell-based; conditions: Klebsiella pneumoniae, PCI602; Organism No. 7, bouillon-agar; read-out: Minimum Inhibitory Concentration
# Outline: as §1
# [22] = system: Bacillus subtilis ATCC 6633; assay: Antibacterial activity, agar-dilution MIC, organism No. 14; assay type: cell-based; conditions: Bacillus subtilis, ATCC6633; Organism No. 14, bouillon-agar; read-out: Minimum Inhibitory Concentration
# Outline: as §1
# [23] = system: Enterobacter aerogenes ATCC 13048; assay: Antibacterial activity, agar-dilution MIC, organism No. 23; assay type: cell-based; conditions: Klebsiella aerogenes, ATCC13048; Organism No. 23, bouillon-agar; read-out: Minimum Inhibitory Concentration
# Outline: as §1
# [24] = system: Proteus mirabilis IFO 3849; assay: Antibacterial activity, agar-dilution MIC, organism No. 19; assay type: cell-based; conditions: Proteus mirabilis, IFO3849; Organism No. 19, bouillon-agar; read-out: Minimum Inhibitory Concentration
# Outline: as §1
# Salmonella typhi 901 = assay: Antibacterial activity, agar-dilution MIC, organism No. 9; assay type: cell-based; conditions: Salmonella enterica, TYPHI, read-out: Minimum Inhibitory Concentration
# Outline: as §1
# [25] = system: Staphylococcus aureus Terajima; assay: Antibacterial activity, agar-dilution MIC, organism No. 2; assay type: cell-based; conditions: Staphylococcus aureus; Organism No. 2, bouillon-agar; read-out: Minimum Inhibitory Concentration
# Outline: as §1
# [26] = system: Serratia marcescens IAM 1184; assay: Antibacterial activity, agar-dilution MIC, organism No. 13; assay type: cell-based; conditions: Serratia marcescens, IAM1184; Organism No. 13, bouillon-agar; read-out: Minimum Inhibitory Concentration
# Outline: as §1
# [27] = system: Staphylococcus aureus MS 353; assay: Antibacterial activity, agar-dilution MIC, organism No. 3; assay type: cell-based; conditions: Staphylococcus aureus, MS353; Organism No. 3, bouillon-agar; read-out: Minimum Inhibitory Concentration
# Outline: as §1
smiles,measurement,setting,value
"[C-]#[N+]C12CC3(/C=C/C(=O)OCC)OC3C1O2 (stereo not drawn) [Compound No. 2, ethyl β-substituted acrylate]",MIC,[1],< 0.2 µg/mL
same,MIC,[2],> 200 µg/mL
same,MIC,[3],> 200 µg/mL
same,MIC,[4],> 200 µg/mL
same,MIC,Enterobacter cloacae 963,> 200 µg/mL
same,MIC,[5],3.13 µg/mL
same,MIC,[6],12.5 µg/mL
same,MIC,[7],6.25 µg/mL
same,MIC,[8],12.5 µg/mL
same,MIC,[9],6.25 µg/mL
same,MIC,Proteus vulgaris HX-19,0.2 µg/mL
same,MIC,[10],6.25 µg/mL
same,MIC,[11],25 µg/mL
same,MIC,[12],100 µg/mL
same,MIC,[13],50 µg/mL
same,MIC,[14],25 µg/mL
same,MIC,[15],6.25 µg/mL
same,MIC,Proteus vulgaris OX-19,6.25 µg/mL
same,MIC,[16],> 200 µg/mL
same,MIC,[17],1.56 µg/mL
same,stability (in words),[18],decomposing and colouring tendency in a non-solvent state
same,MIC,[19],12.5 µg/mL
same,MIC,[20],> 200 µg/mL
same,MIC,[21],6.25 µg/mL
same,MIC,[22],50 µg/mL
same,MIC,[23],> 200 µg/mL
same,MIC,[24],25 µg/mL
same,MIC,Salmonella typhi 901,6.25 µg/mL
same,MIC,[25],12.5 µg/mL
same,MIC,[26],> 200 µg/mL
same,MIC,[27],12.5 µg/mL
"[C-]#[N+]C12CC3(/C=C/C(=O)OCc4ccccc4)OC3C1O2 (stereo not drawn) [Compound No. 10, benzyl β-substituted acrylate]",MIC,[1],< 0.2 µg/mL
same,MIC,[2],3.13 µg/mL
same,MIC,[3],> 100 µg/mL
same,MIC,[4],> 100 µg/mL
same,MIC,Enterobacter cloacae 963,50 µg/mL
same,MIC,[5],0.8 µg/mL
same,MIC,[6],1.56 µg/mL
same,MIC,[7],< 0.1 µg/mL
same,MIC,[8],1.56 µg/mL
same,MIC,[9],0.78 µg/mL
same,MIC,Proteus vulgaris HX-19,< 0.1 µg/mL
same,MIC,[10],0.39 µg/mL
same,MIC,[11],3.13 µg/mL
same,MIC,[12],3.13 µg/mL
same,MIC,[13],6.25 µg/mL
same,MIC,[14],3.13 µg/mL
same,MIC,[15],3.13 µg/mL
same,MIC,Proteus vulgaris OX-19,< 0.1 µg/mL
same,MIC,[16],> 100 µg/mL
same,MIC,[17],< 0.1 µg/mL
same,stability (in words),[18],decomposed and coloured when left in a non-solvent state
same,MIC,[19],0.39 µg/mL
same,MIC,[20],6.25 µg/mL
same,MIC,[21],< 0.1 µg/mL
same,MIC,[22],0.78 µg/mL
same,MIC,[23],> 100 µg/mL
same,MIC,[24],3.13 µg/mL
same,MIC,Salmonella typhi 901,0.78 µg/mL
same,MIC,[25],1.56 µg/mL
same,MIC,[26],12.5 µg/mL
same,MIC,[27],0.39 µg/mL
[C-]#[N+]C12CC3(/C=C/C(=O)OCc4cc([N+](=O)[O-])ccc4O)OC3C1O2 (stereo not drawn) [Compound No. 17],MIC,[1],100 µg/mL
same,MIC,[2],> 200 µg/mL
same,MIC,[3],> 200 µg/mL
same,MIC,[4],> 200 µg/mL
same,MIC,Enterobacter cloacae 963,> 200 µg/mL
same,MIC,[5],> 100 µg/mL
same,MIC,[6],> 100 µg/mL
same,MIC,[7],> 200 µg/mL
same,MIC,[8],> 200 µg/mL
same,MIC,[9],> 200 µg/mL
same,MIC,Proteus vulgaris HX-19,> 200 µg/mL
same,MIC,[10],> 200 µg/mL
same,MIC,[11],> 200 µg/mL
same,MIC,[12],> 200 µg/mL
same,MIC,[13],> 200 µg/mL
same,MIC,[14],> 200 µg/mL
same,MIC,[15],> 200 µg/mL
same,MIC,Proteus vulgaris OX-19,> 200 µg/mL
same,MIC,[16],> 200 µg/mL
same,MIC,[17],200 µg/mL
same,stability (in words),[18],tendency thereof of decomposition in a non-solvent state
same,MIC,[19],> 200 µg/mL
same,MIC,[20],> 200 µg/mL
same,MIC,[21],> 200 µg/mL
same,MIC,[22],> 200 µg/mL
same,MIC,[23],> 200 µg/mL
same,MIC,[24],> 200 µg/mL
same,MIC,Salmonella typhi 901,200 µg/mL
same,MIC,[25],> 200 µg/mL
same,MIC,[26],> 200 µg/mL
same,MIC,[27],> 200 µg/mL
[C-]#[N+]C12CC3(/C=C/C(=O)N4CCCC4)OC3C1O2 (stereo not drawn) [compound 21],MIC,[1],1.56 µg/mL
same,MIC,[2],100 µg/mL
same,MIC,[3],> 200 µg/mL
same,MIC,[4],> 200 µg/mL
same,MIC,Enterobacter cloacae 963,> 200 µg/mL
same,MIC,[5],6.25 µg/mL
same,MIC,[6],3.13 µg/mL
same,MIC,[7],50 µg/mL
same,MIC,[8],> 200 µg/mL
same,MIC,[9],100 µg/mL
same,MIC,Proteus vulgaris HX-19,1.56 µg/mL
same,MIC,[10],50 µg/mL
same,MIC,[11],100 µg/mL
same,MIC,[12],> 200 µg/mL
same,MIC,[13],> 200 µg/mL
same,MIC,[14],> 200 µg/mL
same,MIC,[15],50 µg/mL
same,MIC,Proteus vulgaris OX-19,25 µg/mL
same,MIC,[16],> 200 µg/mL
same,MIC,[17],0.39 µg/mL
same,MIC,[19],50 µg/mL
same,MIC,[20],> 200 µg/mL
same,MIC,[21],50 µg/mL
same,MIC,[22],200 µg/mL
same,MIC,[23],> 200 µg/mL
same,MIC,[24],> 200 µg/mL
same,MIC,Salmonella typhi 901,50 µg/mL
same,MIC,[25],100 µg/mL
same,MIC,[26],> 200 µg/mL
same,MIC,[27],50 µg/mL
